The record followed here is ChEMBL document CHEMBL1909046, “DrugMatrix in vitro pharmacology data”.

Test [1] addresses Beta-1 adrenergic receptor (Homo sapiens, UniProt P08588). As to the kind of experiment: DRUGMATRIX: Adrenergic beta1 radioligand binding (ligand: [125I] Cyanopindolol). The note with it: cho-k1; Not Active = under 50% inhibition at 10 µM. Format: cell membranes, CHO-K1, Membrane.
Test [2] can be described thus: DRUGMATRIX: GABAA, Muscimol, Central radioligand binding (ligand: [3H] Muscimol). The format is cell membranes, Rattus norvegicus, Wistar, Brain, Membrane. Conditions: Not Active = under 50% inhibition at 10 µM.
The target of test [3] is T1, Cholecystokinin receptor type A (Homo sapiens, UniProt P32238). Note: in other assays of this panel Not Active means under 50% inhibition at 10 µM.
T1 sequence (P32238 whole entry): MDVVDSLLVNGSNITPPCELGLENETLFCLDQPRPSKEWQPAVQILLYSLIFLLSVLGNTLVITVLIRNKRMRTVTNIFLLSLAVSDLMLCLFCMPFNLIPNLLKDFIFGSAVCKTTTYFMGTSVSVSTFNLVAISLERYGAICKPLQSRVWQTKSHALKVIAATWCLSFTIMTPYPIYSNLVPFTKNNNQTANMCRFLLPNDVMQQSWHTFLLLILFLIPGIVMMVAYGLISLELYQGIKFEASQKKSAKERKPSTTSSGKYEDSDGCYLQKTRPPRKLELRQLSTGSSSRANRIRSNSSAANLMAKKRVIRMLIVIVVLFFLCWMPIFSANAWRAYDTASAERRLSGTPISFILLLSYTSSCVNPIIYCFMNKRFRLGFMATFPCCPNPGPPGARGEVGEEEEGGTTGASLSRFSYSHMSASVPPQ
Format: cell membranes, Membrane. The note with it: 1321-n1.

Test [4] in a line: DRUGMATRIX: Interleukin IL-1 radioligand binding (ligand: [125I] interleukin 1beta). The format is cell membranes, Membrane. Conditions: nih3t3; Not Active = under 50% inhibition at 10 µM.
Test [5] can be described thus: DRUGMATRIX: Glutamate, NMDA, Agonism radioligand binding (ligand: [3H] CGP-39653). Format: cell membranes, Rattus norvegicus, Wistar, Cerebral cortex, Membrane. Conditions: Not Active = under 50% inhibition at 10 µM.
In a further test the target is Acetylcholinesterase (Homo sapiens, UniProt P22303). As to the kind of experiment: DRUGMATRIX: Acetylcholinesterase enzyme inhibition (substrate: acetylthiocholine). Format: cell-based, HEK293. The note with it: hek293; Not Active = under 50% inhibition at 10 µM.
Test [6] has as its target Aldo-keto reductase family 1 member B1 (Rattus norvegicus, UniProt P07943). The experiment in a line: biochemical. The format is tissue-based, Lens of camera-type eye.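 Note: inhibition of aldose reductase enzyme activity, measured with DL-glyceraldehyde as the substrate; in other assays of this panel Not Active means under 50% inhibition at 10 µM.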
Test [7] deals with Protein phosphatase 3 catalytic subunit alpha (Homo sapiens, UniProt Q08209). Details: species or system Escherichia coli.

Sequence of Beta-1 adrenergic receptor (P08588 whole entry): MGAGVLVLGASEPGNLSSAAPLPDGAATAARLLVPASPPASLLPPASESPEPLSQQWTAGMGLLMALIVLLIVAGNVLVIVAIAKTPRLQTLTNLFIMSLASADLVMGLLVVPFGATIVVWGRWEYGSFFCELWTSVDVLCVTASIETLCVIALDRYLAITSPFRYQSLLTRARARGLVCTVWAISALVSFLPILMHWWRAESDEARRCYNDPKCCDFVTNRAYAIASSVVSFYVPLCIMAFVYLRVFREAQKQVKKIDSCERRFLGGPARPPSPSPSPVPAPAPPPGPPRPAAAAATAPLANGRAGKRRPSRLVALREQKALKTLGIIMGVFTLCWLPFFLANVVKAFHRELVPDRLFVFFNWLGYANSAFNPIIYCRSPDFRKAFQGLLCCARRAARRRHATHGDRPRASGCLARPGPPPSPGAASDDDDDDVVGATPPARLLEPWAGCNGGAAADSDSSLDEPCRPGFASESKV
Sequence of Acetylcholinesterase (P22303 whole entry): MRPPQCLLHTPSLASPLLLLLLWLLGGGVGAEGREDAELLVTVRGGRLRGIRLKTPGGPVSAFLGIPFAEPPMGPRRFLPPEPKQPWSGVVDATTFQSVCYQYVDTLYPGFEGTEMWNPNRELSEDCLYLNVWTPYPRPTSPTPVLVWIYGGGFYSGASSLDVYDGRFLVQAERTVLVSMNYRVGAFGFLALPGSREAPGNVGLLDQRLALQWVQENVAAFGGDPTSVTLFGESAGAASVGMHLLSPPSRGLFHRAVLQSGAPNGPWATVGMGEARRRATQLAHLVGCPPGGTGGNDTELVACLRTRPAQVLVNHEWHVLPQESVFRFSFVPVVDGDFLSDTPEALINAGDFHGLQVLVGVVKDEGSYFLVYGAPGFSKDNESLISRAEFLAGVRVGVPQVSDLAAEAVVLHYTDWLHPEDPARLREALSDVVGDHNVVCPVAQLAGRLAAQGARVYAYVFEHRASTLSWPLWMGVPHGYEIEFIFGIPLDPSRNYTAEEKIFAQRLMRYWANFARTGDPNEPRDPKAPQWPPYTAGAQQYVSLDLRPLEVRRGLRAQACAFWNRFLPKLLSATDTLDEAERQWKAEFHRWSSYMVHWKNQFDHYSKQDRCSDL

In general, IC50 refers to the point on the concentration scale where inhibition reaches its midpoint. For the compound `CN1CCN(c2c(F)cc3c(=O)c(C(=O)O)cn(CCF)c3c2F)CC1` [FLEROXACIN], the IC50 entry (in test [1]; in test [2]; in test [3]; in test [4]; in test [5]; at Acetylcholinesterase) was “Not Active” throughout. For the same compound, the IC50 result in test [6] and in test [7] was “Not Active” each time. Also, the Ki entry in test [2], in test [4] and in test [5] was “Not Active” throughout.
In the case of `O=c1[nH]c(=O)n([C@H]2C[C@H](O)[C@@H](CO)O2)cc1F` [FLOXURIDINE], the IC50 entry (in test [1]; in test [2]; in test [3]; in test [4]; in test [5]; against Acetylcholinesterase) was “Not Active” throughout. For the same compound, the IC50 result in test [6] and in test [7] was “Not Active” each time. The Ki entry in test [2], in test [4] and in test [5] was “Not Active” each time.
Turning to `COC(=O)Nc1nc2cc(C(=O)c3ccc(F)cc3)ccc2[nH]1` [FLUBENDAZOLE], the IC50 entry (in test [1]; in test [2]; in test [3]; in test [4]; in test [5]; on Acetylcholinesterase) was “Not Active” each time. For the same compound, the IC50 entry in test [6] and in test [7] was “Not Active” each time. Also, the Ki entry in test [2], in test [4] and in test [5] was “Not Active” each time.
As for `CC(=O)OCC(=O)[C@@]1(O)CC[C@H]2[C@@H]3CCC4=CC(=O)CC[C@]4(C)[C@@]3(F)[C@@H](O)C[C@@]21C` [FLUDROCORTISONE ACETATE], the IC50 entry (in test [1]; in test [2]; in test [3]; in test [4]; in test [5]; on Acetylcholinesterase) was “Not Active” each time. The IC50 entry in test [6] and in test [7] was “Not Active” each time. Further, the Ki entry in test [2], in test [4] and in test [5] was “Not Active” each time.
In the case of `CCOC(=O)c1ncn2c1CN(C)C(=O)c1cc(F)ccc1-2` [FLUMAZENIL], the IC50 entry (in test [1]; in test [2]; in test [3]; in test [4]; in test [5]; at Acetylcholinesterase) was “Not Active” in each case. Further, the IC50 result in test [6] and in test [7] was “Not Active” each time. In addition, the Ki entry in test [2], in test [4] and in test [5] was “Not Active” each time.
Take `CC(=O)OCC(=O)[C@@]12OC(C)(C)O[C@@H]1C[C@H]1[C@@H]3C[C@H](F)C4=CC(=O)C=C[C@]4(C)[C@@]3(F)[C@@H](O)C[C@@]12C` [FLUOCINONIDE]: the IC50 entry (in test [1]; in test [2]; in test [3]; in test [4]; in test [5]; against Acetylcholinesterase) was “Not Active” in each case. The IC50 entry in test [6] and in test [7] was “Not Active” throughout. Besides, the Ki entry in test [2], in test [4] and in test [5] was “Not Active” throughout.
Turning to `O=C(O)P(=O)(O)O` [FOSCARNET], the IC50 result (in test [1]; in test [2]; in test [3]; in test [4]; in test [5]; on Acetylcholinesterase) was “Not Active” each time. The half-inhibitory concentration (IC50) result in test [6] and in test [7] was “Not Active” throughout. Moreover, the Ki result in test [2], in test [4] and in test [5] was “Not Active” throughout.
Take `Cc1ccc(C)c(OCCCC(C)(C)C(=O)O)c1` [GEMFIBROZIL]: the IC50 entry (in test [1]; in test [2]; in test [3]; in test [4]; in test [5]; against Acetylcholinesterase) was “Not Active” each time. Further, the IC50 result in test [6] and in test [7] was “Not Active” each time. For the same compound, the Ki result in test [2], in test [4] and in test [5] was “Not Active” throughout.
For the compound `O=c1c(-c2ccc(O)cc2)coc2cc(O)cc(O)c12` [GENISTEIN], the IC50 entry (in test [1]; in test [2]; in test [3]; in test [4]; in test [5]; on Acetylcholinesterase) was “Not Active” each time. The results for the IC50 in test [6] (read-out: IC50) and in test [7] were 45 µM and “Not Active”, respectively. Besides, the Ki entry in test [2], in test [4] and in test [5] was “Not Active” in each case.
In the case of `CCC1=C(C)CN(C(=O)NCCc2ccc(S(=O)(=O)NC(=O)N[C@H]3CC[C@H](C)CC3)cc2)C1=O` [GLIMEPIRIDE], the IC50 entry (in test [1]; in test [2]; in test [3]; in test [4]; in test [5]; against Acetylcholinesterase) was “Not Active” in each case. Besides, the IC50 result in test [6] and in test [7] was “Not Active” throughout. The Ki entry in test [2], in test [4] and in test [5] was “Not Active” throughout.
For `Nc1cc(-c2ccncc2)c[nH]c1=O` [INAMRINONE], the IC50 result (in test [1]; in test [2]; in test [3]; in test [4]; in test [5]; on Acetylcholinesterase) was “Not Active” each time. Further, the IC50 entry in test [6] and in test [7] was “Not Active” each time. The Ki result in test [2], in test [4] and in test [5] was “Not Active” throughout.
In the case of `CCCCC1=NC2(CCCC2)C(=O)N1Cc1ccc(-c2ccccc2-c2nnn[nH]2)cc1` [IRBESARTAN], the IC50 result (in test [1]; in test [2]; in test [3]; in test [4]; in test [5]; at Acetylcholinesterase) was “Not Active” throughout. Besides, the IC50 entry in test [6] and in test [7] was “Not Active” in each case. Further, the Ki result in test [2], in test [4] and in test [5] was “Not Active” throughout.
Turning to `N[C@@H](Cn1ccc(=O)c(O)c1)C(=O)O` [L-MIMOSINE], the IC50 entry (in test [1]; in test [2]; in test [3]; in test [4]; in test [5]; against Acetylcholinesterase) was “Not Active” in each case. Besides, the IC50 result in test [6] and in test [7] was “Not Active” each time. For the same compound, the Ki entry in test [2], in test [4] and in test [5] was “Not Active” in each case.
Take `C[N+](C)(C)C[C@H](O)CC(=O)[O-]` [LEVOCARNITINE]: the IC50 result (in test [1]; in test [2]; in test [3]; in test [4]; in test [5]; against Acetylcholinesterase) was “Not Active” in each case. The IC50 result in test [6] and in test [7] was “Not Active” each time. Besides, the Ki result in test [2], in test [4] and in test [5] was “Not Active” throughout.
